Laboratory results: PubChem BioAssay (NCI)
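48-hour exposure; five concentrations; linearly interpolated endpoints. GI50 marks 50% less growth. At the TGI there is no net growth.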

How the values were obtained:
Assay in all cases: growth of human tumour cells (NCI), 48 h
786-0 renal = test system: 786-0 renal
A549 NSCLC = test system: A549 NSCLC
ACHN renal = test system: ACHN renal
DU-145 prostate = test system: DU-145 prostate
MOLT-4 leukemia = test system: MOLT-4 leukemia
NCI/ADR-RES ovarian = test system: NCI/ADR-RES ovarian
OVCAR-3 ovarian = test system: OVCAR-3 ovarian
RXF 393 renal = test system: RXF 393 renal
SF-295 CNS = test system: SF-295 CNS
TK-10 renal = test system: TK-10 renal

Structure (SMILES) | TGI (786-0 renal) | TGI (A549 NSCLC) | TGI (ACHN renal) | TGI (DU-145 prostate) | TGI (MOLT-4 leukemia) | TGI (NCI/ADR-RES ovarian) | TGI (OVCAR-3 ovarian) | TGI (RXF 393 renal) | TGI (SF-295 CNS) | TGI (TK-10 renal) | GI50 (786-0 renal) | GI50 (A549 NSCLC) | GI50 (ACHN renal) | GI50 (DU-145 prostate) | GI50 (MOLT-4 leukemia) | GI50 (NCI/ADR-RES ovarian) | GI50 (OVCAR-3 ovarian) | GI50 (RXF 393 renal) | GI50 (SF-295 CNS) | GI50 (TK-10 renal)
Cc1ccc(S(=O)(=O)Nc2ccccc2C=O)cc1 | 35.9 µM | > 100 µM | 46.7 µM | > 100 µM | 34.5 µM | 59 µM | 60.1 µM | > 100 µM | 85.6 µM | 52.4 µM | – | – | – | – | – | – | – | – | – | –
COc1cccc(C2CC(C)(O)Oc3cc4c(cc32)OCO4)c1O (stereo not drawn) | > 100 µM | > 100 µM | > 100 µM | 73.2 µM | > 94.3 µM | 59.3 µM | 42.2 µM | > 79.8 µM | 64.9 µM | > 100 µM | – | – | – | – | – | – | – | – | – | –
CC(=O)CCn1c(=S)sc2ccccc21 | > 100 µM | > 100 µM | > 100 µM | > 100 µM | > 100 µM | > 100 µM | > 100 µM | > 100 µM | > 100 µM | > 100 µM | – | – | – | – | – | – | – | – | – | –
C/C=C(\C)C(=O)O[C@H]1C=CC(=O)O[C@H]1CCC(=O)[C@H](C)O | 30.1 µM | 46.7 µM | 23.4 µM | 33.1 µM | 41.8 µM | 56.1 µM | 22.3 µM | 28.5 µM | 50.8 µM | 34 µM | 14.9 µM | 20.9 µM | 11 µM | 16.9 µM | 17.6 µM | 21.1 µM | 9.58 µM | 7080 nM | 23.6 µM | 17.7 µM
COc1ccccc1/C=N\N/C(N)=N\N=C\c1ccccc1OC | 5.01 µM | > 100 µM | > 53.1 µM | 2.73 µM | 3.9 µM | – | 0.393 µM | > 100 µM | 0.163 µM | 8.89 µM | 0.609 µM | 1.55 µM | 2.82 µM | 0.386 µM | 0.355 µM | 0.39 µM | 0.157 µM | 265 nM | < 0.0478 µM | 0.524 µM
COc1cccc(CC(C)=C(c2ccc(OCCN(C)C)cc2)c2ccc(OCCN(C)C)cc2)c1 | 1.27 µM | 8.25 µM | 3.35 µM | 8.26 µM | 2.39 µM | 8.32 µM | 3.42 µM | 4.44 µM | 8.62 µM | 10.3 µM | 0.606 µM | 3.59 µM | 1.04 µM | 3.86 µM | 0.834 µM | 3.76 µM | 1.18 µM | 779 nM | 4.07 µM | 5.43 µM
CSC1=Nc2c(c(C)c(C)n2COC(CO)CO)C2=NC(=O)C(C)N12 (stereo not drawn) | > 100 µM | > 100 µM | > 100 µM | > 100 µM | > 100 µM | > 100 µM | > 100 µM | > 100 µM | > 100 µM | > 100 µM | > 100 µM | > 100 µM | > 100 µM | > 100 µM | > 100 µM | > 100 µM | > 100 µM | > 100000 nM | > 100 µM | > 100 µM
COC(=O)C1c2cc3c(cc2C(OC2OC(C)C(OC)C(C)(OC)C2OC)CC1(C)O)C(=O)c1c(O)cc2c(c1C3=O)OC1OC2(C)C(O)C([N+](C)(C)[O-])C1O (stereo not drawn) | > 40.5 µM | > 75.8 µM | > 100 µM | > 30.1 µM | 4.97 µM | > 64.3 µM | > 32.3 µM | 0.977 µM | > 42 µM | > 100 µM | – | – | – | – | – | – | – | – | – | –
COc1cccc(F)c1C(=O)c1cnc(NC2CCN(S(C)(=O)=O)CC2)nc1N | > 25 µM | > 25 µM | > 25 µM | > 22.8 µM | > 14.7 µM | > 25 µM | 19 µM | 6.19 µM | > 25 µM | > 25 µM | 6.06 µM | 3.15 µM | 2.16 µM | 6.54 µM | 2.14 µM | 6.9 µM | 4.6 µM | 1880 nM | 3 µM | 4.03 µM
CC1(C)N=C(N)N=C(N)N1c1ccc(CCCCc2ccc(Cl)cc2S(=O)(=O)F)c(Cl)c1 | 8.08 µM | 13.9 µM | 17.6 µM | 15.8 µM | 15.5 µM | > 100 µM | 12.2 µM | 20.4 µM | 12.8 µM | 25.7 µM | 0.428 µM | 0.388 µM | 2.62 µM | 0.558 µM | 0.436 µM | 5.28 µM | 0.762 µM | 1260 nM | 0.409 µM | 5.82 µM
CC(=O)OC1COC(Oc2c(C)c3c4c(c2O)[C@@H](C)CC[C@@H]4[C@@H](C)C[C@H]3C=C(C)C)C(O)C1OC(C)=O (stereo partly drawn) | 31.8 µM | 32.8 µM | 22.9 µM | 32.5 µM | 25.6 µM | 23.7 µM | 23.3 µM | 28.5 µM | 33.2 µM | 46.3 µM | 16.4 µM | 16 µM | 11 µM | 16 µM | 6.64 µM | 9.2 µM | 10.6 µM | 11400 nM | 17.1 µM | 24.1 µM
N#Cc1c(N)nc(N2CCOCC2)c(C#N)c1-c1ccncc1 | > 100 µM | > 100 µM | > 100 µM | > 100 µM | > 100 µM | > 100 µM | > 100 µM | > 100 µM | > 100 µM | > 100 µM | 95.7 µM | > 100 µM | 40.7 µM | > 100 µM | > 100 µM | > 100 µM | 36.4 µM | > 100000 nM | 44.3 µM | 72.4 µM
COc1cc(-c2oc(=O)ccc2C#Cc2ccccn2)cc(OC)c1OC | > 100 µM | > 100 µM | > 100 µM | > 29.5 µM | > 100 µM | – | 2.76 µM | 2.09 µM | 2.01 µM | > 100 µM | 4.47 µM | 4.15 µM | 11.7 µM | 3.48 µM | 4.14 µM | 1.09 µM | 0.733 µM | 273 nM | 0.224 µM | 4.98 µM
O=C(O)c1nnsc1-c1ccc(-c2snnc2C(=O)O)cc1 | > 100 µM | > 100 µM | > 100 µM | > 100 µM | 51.4 µM | > 100 µM | > 100 µM | > 100 µM | > 100 µM | > 100 µM | – | – | – | – | – | – | – | – | – | –
